The target in this test is BTK (Homo sapiens, UniProt Q06187). Put plainly: biochemical. The settings on record: read-out: BTK inhibition (%), 0.75 uM BTK, […] probe 3l, 15 min preincubation.
Sequence of BTK (Q06187 402-655 limits assumed): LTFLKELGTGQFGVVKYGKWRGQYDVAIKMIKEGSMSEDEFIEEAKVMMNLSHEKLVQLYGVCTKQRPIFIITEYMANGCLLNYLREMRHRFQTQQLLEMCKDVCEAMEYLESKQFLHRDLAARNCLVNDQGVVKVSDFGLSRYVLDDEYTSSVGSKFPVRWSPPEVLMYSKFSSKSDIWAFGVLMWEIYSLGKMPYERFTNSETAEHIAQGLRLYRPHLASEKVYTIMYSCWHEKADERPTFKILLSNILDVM

The term inhibition denotes the relative decrease from the control value, in per cent. For the compound `COc1ccc(-c2nc3ccc(C4=NNC(=O)CC4C)cc3[nH]2)cc1` (stereo not drawn) [PCM-0095109], the inhibition at 10 µM was -21.8%.

Turning to `COc1ccc(-c2ccc3c(N4CCOC[C@@H]4C)nc(N4CCOC[C@@H]4C)nc3n2)cc1CO` [PCM-0095110], the inhibition at 10 µM is -8.3%.

For `CCCCCCCCCCCCc1ccc(S(=O)(=O)Nc2nncs2)cc1` [PCM-0095111], the inhibition at 10 µM was found to be 53.8%.

With `CCCNC(=O)Nc1ccc(Oc2ncnc3cc(OC)c(OC)cc23)cc1Cl` [PCM-0095113], the inhibition at 10 µM is -11%.

Turning to `COc1cc([C@@H]2c3cc4c(cc3[C@@H](O[C@@H]3O[C@@H]5CO[C@@H](c6cccs6)O[C@H]5[C@H](O)[C@H]3O)[C@H]3COC(=O)[C@H]23)OCO4)cc(OC)c1O` [PCM-0095114], the inhibition at 10 µM was found to be 24.1%.

Turning to `CCOC(=O)O[C@]1(C(=O)OCCl)CC[C@H]2[C@@H]3CCC4=CC(=O)C=C[C@]4(C)[C@H]3[C@@H](O)C[C@@]21C` [PCM-0095115], the inhibition at 10 µM was found to be 13.8%.

Turning to `C[C@H](C(=O)O)c1ccc(-c2ccccc2)c(F)c1` [PCM-0095117], the inhibition at 10 µM was -2.1%.

For `NC(=O)c1ncn([C@@H]2O[C@H](CO)[C@@H](O)[C@H]2O)c1N` [PCM-0095118], the inhibition at 10 µM amounted to 4.8%.

As for `Clc1ccc(C2(c3ccc(-c4cn[nH]c4)cc3)CCNCC2)cc1` [PCM-0095120], the inhibition at 10 µM was determined as 6.9%.

Consider `CCN1CCN(C(=O)Cc2ccc(Nc3ncc(F)c(Nc4ccc(C(=O)Nc5ccccc5Cl)cc4)n3)cc2)CC1` [PCM-0095121], for which the inhibition at 10 µM was 40.7%.

Regarding `Cc1ccc(C(=O)N(CCCN)[C@@H](c2nc3cc(Cl)ccc3c(=O)n2Cc2ccccc2)C(C)C)cc1` [PCM-0095123], the inhibition at 10 µM amounted to 11.7%.

Consider `Cc1ccc(NC(=O)C2(c3ccc4c(c3)OC(F)(F)O4)CC2)nc1-c1cccc(C(=O)O)c1` [PCM-0095124], for which the inhibition at 10 µM is -9.3%.

Consider `Cn1cncc1[C@@](N)(c1ccc(Cl)cc1)c1ccc2c(c1)c(-c1cccc(Cl)c1)cc(=O)n2C` [PCM-0095125], for which the inhibition at 10 µM was 17.9%.

Consider `Nc1cccc2c1C(=O)N(C1CCC(=O)NC1=O)C2=O` (stereo not drawn) [PCM-0095126], for which the inhibition at 10 µM turned out to be 11%.

On to `CCc1cccc(CC)c1NC(=O)N1Cc2[nH]nc(NC(=O)c3ccc(N4CCN(C)CC4)cc3)c2C1` [PCM-0095127], for which the inhibition at 10 µM stood at 65.5%.

For `O=C(NOCC(O)CO)c1cc(Br)c(F)c(F)c1Nc1ccc(I)cc1F` (stereo not drawn) [PCM-0095128], the inhibition at 10 µM was -19.3%.

With `COc1ccc(C2(C#N)CCC(C(=O)O)CC2)cc1OC1CCCC1` (stereo not drawn) [PCM-0095129], the inhibition at 10 µM was -29.6%.

Turning to `CCOC(=O)c1ccc(C#Cc2ccc3c(c2)C(C)(C)CCS3)nc1` [PCM-0095130], the inhibition at 10 µM was -16.6%.

As to `COc1nc(C)cnc1NS(=O)(=O)c1cccnc1-c1ccc(-c2nnco2)cc1` [PCM-0095131], the inhibition at 10 µM is 3.4%.

As to `C[C@@H]1CN(CC(=O)Nc2ccc3c(c2)Cc2cccc(-c4cc(=O)cc(N5CCOCC5)o4)c2S3)C[C@H](C)O1` [PCM-0095132], the inhibition at 10 µM came out at 26.2%.

As to `COC(=O)N[C@H](C(=O)N[C@@H](Cc1ccccc1)[C@@H](O)CN(Cc1ccc(-c2ccccn2)cc1)NC(=O)[C@@H](NC(=O)OC)C(C)(C)C)C(C)(C)C` [PCM-0095133], the inhibition at 10 µM is -10.9%.

As for `CC(C)c1cnn2c(NCc3ccccc3)cc(NCCCCCCN)nc12` [PCM-0095134], the inhibition at 10 µM was -25.5%.

For the compound `O=C(NCc1ccccc1)c1csc(Nc2ccncn2)n1` [PCM-0095135], the inhibition at 10 µM is -9%.

As for `Cc1ccc(-n2nc(C(C)(C)C)cc2NC(=O)Nc2ccc(OCCN3CCOCC3)c3ccccc23)cc1` [PCM-0095136], the inhibition at 10 µM was 9.7%.

As for `CCC(=O)OCC(=O)[C@@]1(OC(=O)CC)[C@@H](C)C[C@H]2[C@@H]3CCC4=CC(=O)C=C[C@]4(C)[C@@]3(F)[C@@H](O)C[C@@]21C` [PCM-0095138], the inhibition at 10 µM was -9.3%.

On to `C[C@H]1C[C@H]2[C@@H]3CCC4=CC(=O)C=C[C@]4(C)[C@H]3C(=O)C[C@]2(C)[C@@]1(O)C(=O)CO` [PCM-0095139], for which the inhibition at 10 µM was 29%.

For the compound `CCCCC(=O)O[C@]1(C(=O)CO)[C@@H](C)C[C@H]2[C@@H]3CCC4=CC(=O)C=C[C@]4(C)[C@@]3(F)[C@@H](O)C[C@@]21C` [PCM-0095140], the inhibition at 10 µM was -15.9%.

Take `CN1CCN(c2c(F)cc3c(=O)c(C(=O)O)cn4c3c2OCN4C)CC1` [PCM-0095142]: the inhibition at 10 µM came to 0%.

With `COc1ccc2cc(-c3nc(-c4ccc([S+](C)[O-])cc4)[nH]c3-c3ccncc3)ccc2c1` (stereo not drawn) [PCM-0095143], the inhibition at 10 µM turned out to be 33.8%.

As to `O=S(=O)(NCCNC/C=C/c1ccc(Br)cc1)c1cccc2cnccc12` [PCM-0095146], the inhibition at 10 µM is -22.8%.

As to `Nc1cccc(-c2cc3c(Oc4cccc(O)c4)ncnc3[nH]2)c1` [PCM-0095147], the inhibition at 10 µM was 82.1%.

Turning to `Cc1[nH]c(/C=C2\C(=O)Nc3ccccc32)c(C)c1CCC(=O)O` [PCM-0095149], the inhibition at 10 µM is 52.4%.

With `COc1ccc(-n2nc(C(N)=O)c3c2C(=O)N(c2ccc(N4CCCCC4=O)cc2)CC3)cc1` [PCM-0095150], the inhibition at 10 µM was -7.8%.

With `CC1=C(C(=O)Nc2cc3cn[nH]c3cc2F)C(c2ccc(C(F)(F)F)cc2)CC(=O)N1` (stereo not drawn) [PCM-0095153], the inhibition at 10 µM was found to be 48.3%.

Turning to `O=C(Nc1cccc2c(=O)cc(-c3nn[nH]n3)oc12)c1ccc(OCCCCc2ccccc2)cc1` [PCM-0095155], the inhibition at 10 µM turned out to be 73.8%.

Consider `CCC[S+]([O-])c1ccc2nc(NC(=O)OC)[nH]c2c1` (stereo not drawn) [PCM-0095157], for which the inhibition at 10 µM is 20.2%.

On to `CC1CCC(C(=O)N(c2cc(C#CC(C)(C)C)sc2C(=O)O)C2CCC(O)CC2)CC1` (stereo not drawn) [PCM-0095160], for which the inhibition at 10 µM came out at 2.3%.

With `O[C@@H](COc1cccc2ncccc12)CN1CCN(C2c3ccccc3[C@@H]3[C@H](c4ccccc42)C3(F)F)CC1` (stereo partly drawn) [PCM-0095161], the inhibition at 10 µM worked out at 103%.

In the case of `COc1cc(C(C)=O)ccc1OCCCN1CCC(c2noc3cc(F)ccc23)CC1` [PCM-0095163], the inhibition at 10 µM is -16.3%.

As for `Cn1cc(/C=C/C(=O)c2cccc(F)c2)cc1/C=C/C(=O)NO` [PCM-0095164], the inhibition at 10 µM turned out to be 34.2%.

Take `COc1ccc(S(=O)(=O)N(C(C)=O)c2ccccc2/C=C/c2cc[n+]([O-])cc2)cc1` [PCM-0095165]: the inhibition at 10 µM is -18.6%.

On to `O=C(O)c1ccc(-n2nc(-c3ccccc3O)nc2-c2ccccc2O)cc1` [PCM-0095168], for which the inhibition at 10 µM was found to be 36.6%.

Take `CC(C)(C)C(=O)OCOP(=O)(COCCn1cnc2c(N)ncnc21)OCOC(=O)C(C)(C)C` [PCM-0095170]: the inhibition at 10 µM came out at 3.9%.

On to `CC(C)CC(=O)Nc1n[nH]c2c1CN(C(=O)C1CCN(C)CC1)C2(C)C` [PCM-0095172], for which the inhibition at 10 µM was found to be 17.9%.

With `CC(=O)Nc1nc(C)c(-c2ccc(Cl)c(S(=O)(=O)NCCO)c2)s1` [PCM-0095173], the inhibition at 10 µM was -10.3%.

For the compound `Cc1ccc(C(=O)Nc2ccc(CN3CCN(C)CC3)c(C(F)(F)F)c2)cc1C#Cc1cnc2cccnn12` [PCM-0095174], the inhibition at 10 µM worked out at 92.4%.

Turning to `CC(C)(C)Cn1c(N)nc2ccc(-c3[nH]c(C(C)(C)C)nc3-c3ccc(F)cc3)nc21` [PCM-0095175], the inhibition at 10 µM was -5.1%.

For `C#CCC(Cc1cnc2nc(N)nc(N)c2n1)c1ccc(C(=O)N[C@@H](CCC(=O)O)C(=O)O)cc1` (stereo partly drawn) [PCM-0095176], the inhibition at 10 µM was 1.6%.

For the compound `CN(C)[C@@H](CCOc1cccc2ccccc12)c1ccccc1` [PCM-0095178], the inhibition at 10 µM worked out at 6.2%.

Turning to `CC1=C(C(=O)O)N2C(=O)[C@@H](NC(=O)[C@H](N)c3ccccc3)[C@H]2SC1` [PCM-0095179], the inhibition at 10 µM was 4.3%.

Take `CC1(C)O[C@@H]2C[C@H]3[C@@H]4CCC5=CC(=O)C=C[C@]5(C)[C@@]4(F)[C@@H](O)C[C@]3(C)[C@]2(C(=O)CO)O1` [PCM-0095180]: the inhibition at 10 µM was determined as 6.9%.

For `CCCCCCCCCCC[C@@H](C[C@@H]1OC(=O)[C@H]1CCCCCC)OC(=O)[C@H](CC(C)C)NC=O` [PCM-0095181], the inhibition at 10 µM is -13.2%.

Take `CCC[C@H](N[C@@H](C)C(=O)N1[C@H](C(=O)O)C[C@@H]2CCCC[C@@H]21)C(=O)OCC` [PCM-0095182]: the inhibition at 10 µM was -4.3%.

Turning to `CO[C@H]1/C=C/O[C@@]2(C)Oc3c(C)c(O)c4c(O)c(c5c(c4c3C2=O)=NC2(CCN(CC(C)C)CC2)N=5)NC(=O)/C(C)=C\C=C\[C@H](C)[C@H](O)[C@@H](C)[C@@H](O)[C@@H](C)[C@H](OC(C)=O)[C@@H]1C` [PCM-0095185], the inhibition at 10 µM was 7%.

As to `NC(=O)CC[C@@H](N)C(=O)O` [PCM-0095186], the inhibition at 10 µM came to 6%.

Consider `CCCCc1nc2cc(/C=C/C(=O)NO)ccc2n1CCN(CC)CC` [PCM-0095187], for which the inhibition at 10 µM was 9.7%.

Consider `Nc1ccn(C[C@@H](CO)OCP(=O)(O)O)c(=O)n1` [PCM-0095189], for which the inhibition at 10 µM is -12.8%.

Regarding `CN(C)c1ccc(-c2nc3ncc(Cl)c(N4CCN(CC(=O)Nc5nccs5)CC4)c3[nH]2)cc1` [PCM-0095191], the inhibition at 10 µM was -2.6%.

`COc1cc(Nc2nc3ccccc3nc2NS(=O)(=O)c2ccc(NC(=O)c3ccc(C)c(OC)c3)cc2)cc(OC)c1` [PCM-0095193]: the inhibition at 10 µM was -17.9%.

Turning to `C=CCn1c(=O)c2cnc(Nc3ccc(N4CCN(C)CC4)cc3)nc2n1-c1cccc(C(C)(C)O)n1` [PCM-0095195], the inhibition at 10 µM turned out to be 37.2%.

In the case of `CC(C)(C)c1cc(NC(=O)Nc2ccc(-c3cn4c(n3)sc3cc(OCCN5CCOCC5)ccc34)cc2)no1` [PCM-0095196], the inhibition at 10 µM came to 1.4%.

For `O=C(O)C[C@H](O)C[C@H](O)/C=C/c1c(C2CC2)nc2ccccc2c1-c1ccc(F)cc1` [PCM-0095199], the inhibition at 10 µM was -36.6%.

For the compound `CC(C)N(CCNC(=O)CN1CCCC1=O)C(C)C` [PCM-0095202], the inhibition at 10 µM is 1.6%.

In the case of `N[C@@H]1CN(c2c(F)cc3c(=O)c(C(=O)O)cn([C@@H]4C[C@@H]4F)c3c2Cl)CC12CC2` [PCM-0095203], the inhibition at 10 µM is -6.8%.

`O=C(Nc1ncc(SCCN2CCCC2)s1)[C@]1(c2ccc(S(=O)(=O)C3CC3)cc2)C[C@H]1C1CCCCC1` [PCM-0095206]: the inhibition at 10 µM was -8.6%.

Consider `NC1=N[C@@]2(c3cc(NC(=O)c4ccc(F)cn4)ccc3F)COC[C@H]2CS1` [PCM-0095207], for which the inhibition at 10 µM is -3.1%.

These data come from paper PMC8041284, “Tunable Methacrylamides for Covalent Ligand Directed Release Chemistry” (Journal of the American Chemical Society, 2021).
